# Article PMC6177136, “Hybrid topoisomerase I and HDAC inhibitors as dual action anticancer agents” (PLoS ONE, 2018)
# Tests used:
# NCI-H460 = experiment: Cytotoxicity assay (SRB, 72 h) NCI-H460; assay type: cell-based, Human; conditions: Homo sapiens, NCI-H460; 72 h, SRB assay; read-out: IC50 ± SD NCI-H460
# Capan 1 = experiment: Cytotoxicity assay (SRB, 72 h) Capan 1; assay type: cell-based, Human; conditions: Homo sapiens, CAPAN-1, read-out: IC50 ± SD Capan 1
# A431 = experiment: Cytotoxicity assay (SRB, 72 h) A431; assay type: cell-based, Human; conditions: Homo sapiens, A-431, read-out: IC50 ± SD A431
# DU145 = experiment: Cytotoxicity assay (SRB, 72 h) DU145; assay type: cell-based, Human; conditions: Homo sapiens, DU-145, read-out: IC50 ± SD DU145
# HDAC2 = HDAC2 (Homo sapiens, UniProt Q92769); experiment: HDAC profiling HDAC2; assay type: biochemical; conditions: purified isoform, 10 concentrations from 10 μM, triplicate
# HDAC6 = HDAC6 (Homo sapiens, UniProt Q9UBN7); experiment: HDAC profiling HDAC6; assay type: biochemical; conditions: purified isoform, 10 concentrations from 10 μM, triplicate
# MINO = experiment: Cytotoxicity assay (MTT, 72 h) MINO; assay type: cell-based, Human; conditions: Homo sapiens, MINO; 72 h, MTT assay; read-out: IC50 ± SD MINO
# JECO-1 = experiment: Cytotoxicity assay (MTT, 72 h) JECO-1; assay type: cell-based, Human; conditions: Homo sapiens; 72 h, MTT assay; read-out: IC50 ± SD JECO-1
# OCI-LY3 = experiment: Cytotoxicity assay (MTT, 72 h) OCI-LY3; assay type: cell-based, Human; conditions: Homo sapiens, OCI-Ly3; 72 h, MTT assay; read-out: IC50 ± SD OCI-LY3
# Protocol: Human tumor cells were seeded in 96-well cell culture plastic plates, allowed to attach, and exposed to scalar concentrations of the test compounds.
# KM-H2 = experiment: Cytotoxicity assay (MTT, 72 h) KM-H2; assay type: cell-based, Human; conditions: Homo sapiens, KM-H2; 72 h, MTT assay; read-out: IC50 ± SD KM-H2
# K 562 = experiment: Cytotoxicity assay (MTT, 72 h) K 562; assay type: cell-based; conditions: Homo sapiens, K562, read-out: IC50 ± SD K 562
# MV4-11 = experiment: Cytotoxicity assay (MTT, 72 h) MV4-11; assay type: cell-based; conditions: Homo sapiens, read-out: IC50 ± SD MV4-11
# Jurkat-cp = experiment: Cytotoxicity assay (MTT, 72 h) Jurkat-cp; assay type: cell-based; conditions: Homo sapiens, read-out: IC50 ± SD Jurkat-cp
# RAJI = experiment: Cytotoxicity assay (MTT, 72 h) RAJI; assay type: cell-based; conditions: Homo sapiens, read-out: IC50 ± SD RAJI
# RAMOS = experiment: Cytotoxicity assay (MTT, 72 h) RAMOS; assay type: cell-based; conditions: Homo sapiens, read-out: IC50 ± SD RAMOS
# H929 = experiment: Cytotoxicity assay (MTT, 72 h) H929; assay type: cell-based; conditions: Homo sapiens, NCI-H929, read-out: IC50 ± SD H929
# MM288 = experiment: Cytotoxicity assay, primary mesothelioma MM288; assay type: cell-based, Human; conditions: Homo sapiens; epithelioid, 72 h, SBR assay; read-out: IC50 ± SD MM288
# MM473 = experiment: Cytotoxicity assay, primary mesothelioma MM473; assay type: cell-based, Human; conditions: Homo sapiens, MM473; epithelioid, 72 h, SBR assay; read-out: IC50 ± SD MM473
# MM481 = experiment: Cytotoxicity assay, primary mesothelioma MM481; assay type: cell-based, Human; conditions: Homo sapiens; epithelioid, 72 h, SBR assay; read-out: IC50 ± SD MM481
# MM487 = experiment: Cytotoxicity assay, primary mesothelioma MM487; assay type: cell-based, Human; conditions: Homo sapiens, MM487; biphasic, 72 h, SBR assay; read-out: IC50 ± SD MM487
# MM491 = experiment: Cytotoxicity assay, primary mesothelioma MM491; assay type: cell-based, Human; conditions: Homo sapiens; biphasic, 72 h, SBR assay; read-out: IC50 ± SD MM491
# [1] = tested on: primary malignant pleural mesothelioma (MPM) cell lines; experiment: Primary malignant pleural mesothelioma (MPM) cell lines (summary); assay type: cell-based; conditions: Homo sapiens, span over the cell line panel, 72 h, read-out: IC50 across primary mesothelioma cell lines (Table 7)
# Acetylated Tubulin = experiment: Western blot, acetylation of tubulin in NCI-H460 cells; assay type: cell-based, Human; conditions: 24 h; SN38 0.05 μM, SAHA 5 μM, 3b and 3d 0.125–0.2–0.5 μM
# Protocol: (§1) The supernatant, containing the total proteins extracts, were transferred in new vials. The protein concentration was measured by Bradford Protein Assay. Equal amounts of proteins for each sample were then resolved by SDS-PAGE and loaded on 10–12% polyacrilamide gels. The proteins were then transferred on nitrocellulose membranes. Molecular weights were estimated based upon the relative migration with molecular weight protein markers.
# (§2) The non-specific binding was blocked by incubation of membranes in TBS-tween (25 mM Tris, 150 mM NaCl, 0.1% Tween 20) with 5% nonfat dry milk (BIORAD, Milan) for 60 minutes. Subsequently, the membrane was incubated overnight with primary antibodies: anti-Histone H4 (Millipore, 1:500), anti-acetyl-H4 (Santa Cruz, 1:1000) anti-p21 (Santa Cruz, 1:1000), anti-acetyl-tubulin (abcam, 1:1000), anti-α-tubulin (Sigma, 1:5000), anti β-actin (Sigma, 1:5000) and anti-Topoisomerase 1 (Santa Cruz, 1:500). After three washes with TBST blots were incubated with HRP-coniugated secondary anti-mouse and anti-rabbit (Santa Cruz, 1:5000) 1 hour at room temperature. After three washes with TBST the blots were developed with ECL substrate (GE Healthcare) and chemiluminescence detected by ChemiDoc Imaging System (Biorad). The optical density of the protein bands detected by western blotting was normalized on α -tubulin levels and analyzed by ChemiDoc software (Biorad). […]
# Top1 = experiment: Western blot, Top1 expression in NCI-H460 cells; assay type: cell-based, Human; conditions: 24 h; SAHA 5 μM, SN38 0.05 μM, 3d 0.125–0.2–0.5 μM
# Protocol: as §1, §2
# p21 = experiment: Western blot, p21 in NCI-H460 cells; assay type: cell-based, Human; conditions: 24 h; SAHA 5 μM, SN38 0.05 μM, 3d 0.125–0.2–0.5 μM
# Protocol: as §1, §2
# p16 = experiment: Western blot, p16 in NCI-H460 cells; assay type: cell-based, Human; conditions: 24 h; SAHA 5 μM, SN38 0.05 μM, 3d 0.125–0.2–0.5 μM
# Protocol: as §1
# (§3) The non-specific binding was blocked by incubation of membranes in TBS-tween (25 mM Tris, 150 mM NaCl, 0.1% Tween 20) with 5% nonfat dry milk (BIORAD, Milan) for 60 minutes. Subsequently, the membrane was incubated overnight with primary antibodies: anti-Histone H4 (Millipore, 1:500), anti-acetyl-H4 (Santa Cruz, 1:1000) anti-p21 (Santa Cruz, 1:1000), anti-acetyl-tubulin (abcam, 1:1000), anti-α-tubulin (Sigma, 1:5000), anti β-actin (Sigma, 1:5000) and anti-Topoisomerase 1 (Santa Cruz, 1:500). After three washes with TBST blots were incubated with HRP-coniugated secondary anti-mouse and anti-rabbit (Santa Cruz, 1:5000) 1 hour at room temperature. After three washes with TBST the blots were developed with ECL substrate (GE Healthcare) and chemiluminescence detected by ChemiDoc Imaging System (Biorad). The optical density of the protein bands detected by western blotting was normalized on α -tubulin levels and analyzed by ChemiDoc software (Biorad).
# (§4) Cells were lysed in 0.5% NP-40 and 40 μg of total proteins were loaded on NuPAGE 4–12% (Invitrogen), transferred to a nitrocellulose paper and probed with specific antibodies.
# CycD1 = experiment: Western blot, CycD1 in NCI-H460 cells; assay type: cell-based, Human; conditions: 24 h; SAHA 5 μM, SN38 0.05 μM, 3d 0.125–0.2–0.5 μM
# Protocol: as §1, §3, §4
# Sequence of HDAC6 (Q9UBN7 whole entry, canonical isoform): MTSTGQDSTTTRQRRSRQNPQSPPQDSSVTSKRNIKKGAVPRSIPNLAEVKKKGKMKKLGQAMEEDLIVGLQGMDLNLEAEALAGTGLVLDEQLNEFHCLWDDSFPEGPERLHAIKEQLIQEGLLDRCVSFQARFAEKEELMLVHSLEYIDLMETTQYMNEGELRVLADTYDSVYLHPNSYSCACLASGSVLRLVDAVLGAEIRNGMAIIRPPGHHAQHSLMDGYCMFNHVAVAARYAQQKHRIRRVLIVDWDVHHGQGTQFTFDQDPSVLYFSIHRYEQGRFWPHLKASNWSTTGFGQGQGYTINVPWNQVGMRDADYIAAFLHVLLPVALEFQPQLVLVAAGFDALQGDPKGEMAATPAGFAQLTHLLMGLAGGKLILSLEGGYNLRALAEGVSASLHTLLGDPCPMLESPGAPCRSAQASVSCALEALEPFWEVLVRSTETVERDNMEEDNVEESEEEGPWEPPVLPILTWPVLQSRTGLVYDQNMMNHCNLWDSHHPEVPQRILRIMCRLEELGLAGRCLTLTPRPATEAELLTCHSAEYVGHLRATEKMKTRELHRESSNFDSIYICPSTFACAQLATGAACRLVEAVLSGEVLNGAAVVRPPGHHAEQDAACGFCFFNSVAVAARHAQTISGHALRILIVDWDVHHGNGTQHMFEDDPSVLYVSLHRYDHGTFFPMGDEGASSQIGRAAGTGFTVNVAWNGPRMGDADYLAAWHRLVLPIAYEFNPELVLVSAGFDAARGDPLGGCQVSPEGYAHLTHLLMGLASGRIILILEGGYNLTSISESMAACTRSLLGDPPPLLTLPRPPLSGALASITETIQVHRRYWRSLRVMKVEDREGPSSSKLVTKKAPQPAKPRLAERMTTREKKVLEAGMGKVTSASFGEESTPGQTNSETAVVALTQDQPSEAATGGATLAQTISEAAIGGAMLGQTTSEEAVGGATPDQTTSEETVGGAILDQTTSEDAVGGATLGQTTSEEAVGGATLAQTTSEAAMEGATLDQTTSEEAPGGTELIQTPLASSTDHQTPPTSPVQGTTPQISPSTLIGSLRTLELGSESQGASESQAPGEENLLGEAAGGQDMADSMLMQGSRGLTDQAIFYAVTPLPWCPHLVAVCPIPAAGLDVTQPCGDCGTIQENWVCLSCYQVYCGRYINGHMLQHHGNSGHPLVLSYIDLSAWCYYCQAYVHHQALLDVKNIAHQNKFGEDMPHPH
# Sequence of HDAC2 (Q92769 whole entry, canonical isoform): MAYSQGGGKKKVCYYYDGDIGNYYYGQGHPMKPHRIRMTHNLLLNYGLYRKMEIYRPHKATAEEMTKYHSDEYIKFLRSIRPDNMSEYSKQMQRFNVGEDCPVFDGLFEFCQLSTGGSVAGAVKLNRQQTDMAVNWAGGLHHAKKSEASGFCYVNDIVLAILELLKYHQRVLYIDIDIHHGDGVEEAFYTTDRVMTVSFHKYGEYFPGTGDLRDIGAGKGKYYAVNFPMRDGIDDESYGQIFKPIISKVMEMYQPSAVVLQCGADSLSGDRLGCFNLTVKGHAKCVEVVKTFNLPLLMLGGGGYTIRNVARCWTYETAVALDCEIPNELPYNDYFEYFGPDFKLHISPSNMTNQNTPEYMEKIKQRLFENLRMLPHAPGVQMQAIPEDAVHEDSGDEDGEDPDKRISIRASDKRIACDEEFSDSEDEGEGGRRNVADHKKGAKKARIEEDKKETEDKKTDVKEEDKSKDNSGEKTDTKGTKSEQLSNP
smiles,measurement,setting,value
"CC[C@@]1(O)C(=O)OCc2c1cc1n(c2=O)Cc2c-1nc1ccc(O)cc1c2C=NOCCCCCC(=O)NO [Compound 3d, 6-(10-hydroxycamptothecin-7-ylmethyleneaminooxy)-hexanoic acid hydroxyamide]",IC50,NCI-H460,270 ± 20 nM
same,IC50,Capan 1,35 ± 2 nM
same,IC50,A431,140 ± 20 nM
same,IC50,DU145,70 ± 3 nM
same,IC50,HDAC2,93.3 nM
same,IC50,HDAC6,1.56 nM
same,IC50,MINO,31 ± 10 nM
same,IC50,JECO-1,23 ± 6 nM
same,IC50,OCI-LY3,18 ± 5 nM
same,IC50,KM-H2,390 ± 100 nM
same,IC50,K 562,940 ± 200 nM
same,IC50,MV4-11,2730 ± 300 nM
same,IC50,Jurkat-cp,230 ± 50 nM
same,IC50,RAJI,77 ± 20 nM
same,IC50,RAMOS,990 ± 100 nM
same,IC50,H929,1100 ± 400 nM
same,IC50,MM288,480 ± 100 nM
same,IC50,MM473,2100 ± 500 nM
same,IC50,MM481,11700 ± 1200 nM
same,IC50,MM487,200 ± 50 nM
same,IC50,MM491,870 ± 300 nM
same,IC50,[1],50 to 11000 nM
same,accumulation of acetylated tubulin,Acetylated Tubulin,H4 and tubulin acetylation in a dose dependent manner
same,expression of Top1,Top1,drastically reduced the expression of Top1
same,expression of p21,p21,activated the expression of p21
same,P16 regulation,p16,didn’t show any effect
same,CycD1 regulation,CycD1,didn’t show any effect
